Test results as given in PubChem BioAssay AID1259407 (Chemical Carcinogenesis Research Information System (CCRIS), 2018).
The source made the active and inactive calls. The rule behind the calls is not given here.

Test system: CCRIS mutagenicity, Ames/micronucleus/aberration tests
Test: CCRIS mutagenicity studies
[1] = Test System: AMES SALMONELLA TYPHIMURIUM, Strain/Indicator: TA98, Metabolic Activation: NONE, Method: STANDARD PLATE
[2] = Test System: AMES SALMONELLA TYPHIMURIUM, Strain/Indicator: TA100, Metabolic Activation: NONE, Method: STANDARD PLATE
[3] = Test System: AMES SALMONELLA TYPHIMURIUM, Strain/Indicator: TA98, Metabolic Activation: NONE, Method: PREINCUBATION
[4] = Test System: AMES SALMONELLA TYPHIMURIUM, Strain/Indicator: TA98, Metabolic Activation: RAT, LIVER, S-9, AROCLOR 1254, Method: PREINCUBATION
[5] = Test System: AMES SALMONELLA TYPHIMURIUM, Strain/Indicator: TA100, Metabolic Activation: NONE, Method: PREINCUBATION
[6] = Test System: AMES SALMONELLA TYPHIMURIUM, Strain/Indicator: TA100, Metabolic Activation: RAT, LIVER, S-9, AROCLOR 1254, Method: PREINCUBATION
[7] = Test System: AMES SALMONELLA TYPHIMURIUM, Strain/Indicator: TA98, Metabolic Activation: RAT, LIVER, S-9, AROCLOR 1254, Method: STANDARD PLATE
[8] = Test System: AMES SALMONELLA TYPHIMURIUM, Strain/Indicator: TA100, Metabolic Activation: RAT, LIVER, S-9, AROCLOR 1254, Method: STANDARD PLATE
[9] = Test System: AMES SALMONELLA TYPHIMURIUM, Strain/Indicator: TA102, Metabolic Activation: NONE, Method: STANDARD PLATE
[10] = Test System: AMES SALMONELLA TYPHIMURIUM, Strain/Indicator: TA1535, Metabolic Activation: NONE, Method: STANDARD PLATE
[11] = Test System: AMES SALMONELLA TYPHIMURIUM, Strain/Indicator: TA1535, Metabolic Activation: RAT, LIVER, S-9, AROCLOR 1254, Method: STANDARD PLATE
[12] = Test System: AMES SALMONELLA TYPHIMURIUM, Strain/Indicator: TA1538, Metabolic Activation: NONE, Method: STANDARD PLATE
[13] = Test System: AMES SALMONELLA TYPHIMURIUM, Strain/Indicator: TA1538, Metabolic Activation: RAT, LIVER, S-9, AROCLOR 1254, Method: STANDARD PLATE

ClCc1cccc2cc3ccc4cccc5ccc(c12)c3c45
mutagenic call [1]: active; positive
mutagenic call [2]: active; positive

[O]c1nccc(=O)[nH]1
mutagenic call [2]: active; positive

COc1cc(C)cc2c(O)c(-c3c(C)cc4c(O)ccc(O)c4c3OC)cc(O)c12
mutagenic call [3]: inactive; negative
mutagenic call [4]: inactive; negative
mutagenic call [5]: inactive; negative
mutagenic call [6]: inactive; negative

COc1cc(-c2oc3cc(O)cc(O)c3c(=O)c2O)ccc1O
mutagenic call (Test System: AMES SALMONELLA TYPHIMURIUM, Strain/Indicator: TA97, Metabolic Activation: NONE, Method: STANDARD PLATE): inactive; negative
mutagenic call (Test System: AMES SALMONELLA TYPHIMURIUM, Strain/Indicator: TA97, Metabolic Activation: RAT, LIVER, S-9, AROCLOR 1254, Method: STANDARD PLATE): inactive; negative
mutagenic call [1]: inactive; negative
mutagenic call [7]: inactive; negative
mutagenic call [2]: inactive; negative
mutagenic call [8]: inactive; negative
mutagenic call [9]: inactive; negative
mutagenic call (Test System: AMES SALMONELLA TYPHIMURIUM, Strain/Indicator: TA102, Metabolic Activation: RAT, LIVER, S-9, AROCLOR 1254, Method: STANDARD PLATE): inactive; negative
mutagenic call [10]: inactive; negative
mutagenic call [11]: inactive; negative
mutagenic call [12]: inactive; negative
mutagenic call [13]: inactive; negative

O=[N+]([O-])c1c2ccccc2c([N+](=O)[O-])c2ccccc12
mutagenic call [1]: inactive; negative

OCC12OOC1(CO)c1ccccc1O2 (configuration not stated)
mutagenic call [5]: inactive; negative

O=C(Cl)c1ccccc1F
mutagenic call (Test System: AMES SALMONELLA TYPHIMURIUM, Strain/Indicator: TA98, Metabolic Activation: HAMSTER, LIVER, S-9, AROCLOR 1254, Method: PREINCUBATION): active; positive
mutagenic call [3]: inactive; negative
mutagenic call [4]: active; positive
mutagenic call (Test System: AMES SALMONELLA TYPHIMURIUM, Strain/Indicator: TA100, Metabolic Activation: HAMSTER, LIVER, S-9, AROCLOR 1254, Method: PREINCUBATION): active; positive
mutagenic call [5]: inactive; negative
mutagenic call [6]: active; positive
mutagenic call (Test System: AMES SALMONELLA TYPHIMURIUM, Strain/Indicator: TA1535, Metabolic Activation: HAMSTER, LIVER, S-9, AROCLOR 1254, Method: PREINCUBATION): inactive; negative
mutagenic call (Test System: AMES SALMONELLA TYPHIMURIUM, Strain/Indicator: TA1535, Metabolic Activation: NONE, Method: PREINCUBATION): inactive; negative
mutagenic call (Test System: AMES SALMONELLA TYPHIMURIUM, Strain/Indicator: TA1535, Metabolic Activation: RAT, LIVER, S-9, AROCLOR 1254, Method: PREINCUBATION): inactive; negative
mutagenic call (Test System: AMES SALMONELLA TYPHIMURIUM, Strain/Indicator: TA1537, Metabolic Activation: HAMSTER, LIVER, S-9, AROCLOR 1254, Method: PREINCUBATION): inactive; negative
mutagenic call (Test System: AMES SALMONELLA TYPHIMURIUM, Strain/Indicator: TA1537, Metabolic Activation: NONE, Method: PREINCUBATION): inactive; negative
mutagenic call (Test System: AMES SALMONELLA TYPHIMURIUM, Strain/Indicator: TA1537, Metabolic Activation: RAT, LIVER, S-9, AROCLOR 1254, Method: PREINCUBATION): inactive; negative

Fc1cc(F)c2ncccc2c1
mutagenic call (Test System: AMES SALMONELLA TYPHIMURIUM, Strain/Indicator: TA100, Metabolic Activation: RAT LIVER S-9, PHENOBARBITAL AND 5,6-BENZOFLAVONE, Method: PREINCUBATION): active; positive

CC(=O)CC(O)(CC(=O)O)C(=O)O (configuration not stated)
mutagenic call (Test System: AMES SALMONELLA TYPHIMURIUM, Strain/Indicator: TA97, Metabolic Activation: NONE, Method: PREINCUBATION): inactive; negative
mutagenic call (Test System: AMES SALMONELLA TYPHIMURIUM, Strain/Indicator: TA97, Metabolic Activation: S-9, Method: PREINCUBATION): inactive; negative
mutagenic call (Test System: AMES SALMONELLA TYPHIMURIUM, Strain/Indicator: TA102, Metabolic Activation: NONE, Method: PREINCUBATION): inactive; negative
mutagenic call (Test System: AMES SALMONELLA TYPHIMURIUM, Strain/Indicator: TA102, Metabolic Activation: S-9, Method: PREINCUBATION): inactive; negative

Clc1cccc(C2CO2)c1 (configuration not stated)
mutagenic call (Test System: E. COLI, Strain/Indicator: WP2 UVRA, Metabolic Activation: NONE, Method: STANDARD PLATE): active; positive

O=C(O)COc1ccc(C(=O)c2cccs2)c(Cl)c1Cl
mutagenic call (Test System: AMES SALMONELLA TYPHIMURIUM, Strain/Indicator: TA100(FR1), Metabolic Activation: NONE, Method: STANDARD PLATE): inactive; negative
mutagenic call (Test System: AMES SALMONELLA TYPHIMURIUM, Strain/Indicator: TA100(FR1), Metabolic Activation: RAT, LIVER, S-9, PHENOBARBITAL AND 3-METHYLCHOLANTHRENE, Method: STANDARD PLATE): inactive; negative
mutagenic call [2]: inactive; negative
mutagenic call (Test System: AMES SALMONELLA TYPHIMURIUM, Strain/Indicator: TA100, Metabolic Activation: RAT, LIVER, S-9, PHENOBARBITAL AND 3-METHYLCHOLANTHRENE, Method: STANDARD PLATE): inactive; negative
mutagenic call (Test System: CHINESE HAMSTER V-79, Strain/Indicator: V-79/6-THIOGUANINE, Metabolic Activation: NONE): inactive; negative
mutagenic call (Test System: CHINESE HAMSTER V-79, Strain/Indicator: V-79/6-THIOGUANINE, Metabolic Activation: RAT, LIVER, HEPATOCYTES (SHERMAN OR SPRAGUE-DAWLEY RATS)): inactive; negative
mutagenic call (Test System: CHINESE HAMSTER V-79, Strain/Indicator: V-79/OUABAIN, Metabolic Activation: NONE): active; positive
mutagenic call (Test System: CHINESE HAMSTER V-79, Strain/Indicator: V-79/OUABAIN, Metabolic Activation: RAT, LIVER, HEPATOCYTES (SHERMAN OR SPRAGUE-DAWLEY RATS)): active; positive

CCCCCCCOP(=S)([S-])OCCCCCCC.CCCCCCCOP(=S)([S-])OCCCCCCC.[Zn+2]
mutagenic call [1]: inactive; negative
mutagenic call (Test System: AMES SALMONELLA TYPHIMURIUM, Strain/Indicator: TA98, Metabolic Activation: RAT, LIVER, S-9, Method: STANDARD PLATE): inactive; negative
mutagenic call [2]: inactive; negative
mutagenic call (Test System: AMES SALMONELLA TYPHIMURIUM, Strain/Indicator: TA100, Metabolic Activation: RAT, LIVER, S-9, Method: STANDARD PLATE): inactive; negative
mutagenic call [9]: inactive; negative
mutagenic call (Test System: AMES SALMONELLA TYPHIMURIUM, Strain/Indicator: TA102, Metabolic Activation: RAT, LIVER, S-9, Method: STANDARD PLATE): inactive; negative

Nc1ccc(-c2ccc([N+](=O)[O-])cc2N)c([N+](=O)[O-])c1
mutagenic call [3]: active; positive
mutagenic call (Test System: AMES SALMONELLA TYPHIMURIUM, Strain/Indicator: TA98, Metabolic Activation: RAT, LIVER, S-9, KANECHLOR 500, Method: PREINCUBATION): active; positive

COc1ccc([C@@H]2CC(=O)c3c(O)cc(O[C@@H]4O[C@H](CO[C@@H]5O[C@@H](C)[C@H](O)[C@@H](O)[C@H]5O)[C@@H](O)[C@H](O)[C@H]4O)cc3O2)cc1O
mutagenic call [1]: inactive; negative
mutagenic call [7]: inactive; negative
mutagenic call [2]: inactive; negative
mutagenic call [8]: inactive; negative
mutagenic call [10]: inactive; negative
mutagenic call [11]: inactive; negative
mutagenic call (Test System: AMES SALMONELLA TYPHIMURIUM, Strain/Indicator: TA1537, Metabolic Activation: NONE, Method: STANDARD PLATE): inactive; negative
mutagenic call (Test System: AMES SALMONELLA TYPHIMURIUM, Strain/Indicator: TA1537, Metabolic Activation: RAT, LIVER, S-9, AROCLOR 1254, Method: STANDARD PLATE): inactive; negative
mutagenic call [12]: inactive; negative
mutagenic call [13]: inactive; negative
mutagenic call (Test System: E. COLI, Strain/Indicator: WP2, Metabolic Activation: NONE, Method: STANDARD PLATE): inactive; negative
mutagenic call (Test System: E. COLI, Strain/Indicator: WP2, Metabolic Activation: RAT, LIVER, S-9, AROCLOR 1254, Method: STANDARD PLATE): inactive; negative
